Reference: patent publication US8759333B2, “Di-azetidinyl diamide as monoacylglycerol lipase inhibitors” (Janssen Pharmaceutica, NV, priority 2010, dated 2014)

Legend:
MGL = biological target: T1, MGL (Rattus norvegicus, UniProt Q8R431); test: 2-AG Accumulation Assay in rat brain homogenate; assay type: biochemical; details: compound @10 µM, percent of vehicle, read-out: Rat Brain 2AG % VehCntrl (%) @10 µM
T1 construct: one g rat brain was homogenized using a Polytron homogenizer; from tissue; host or cells: rat brain homogenate
T1 sequence (Q8R431 1-303): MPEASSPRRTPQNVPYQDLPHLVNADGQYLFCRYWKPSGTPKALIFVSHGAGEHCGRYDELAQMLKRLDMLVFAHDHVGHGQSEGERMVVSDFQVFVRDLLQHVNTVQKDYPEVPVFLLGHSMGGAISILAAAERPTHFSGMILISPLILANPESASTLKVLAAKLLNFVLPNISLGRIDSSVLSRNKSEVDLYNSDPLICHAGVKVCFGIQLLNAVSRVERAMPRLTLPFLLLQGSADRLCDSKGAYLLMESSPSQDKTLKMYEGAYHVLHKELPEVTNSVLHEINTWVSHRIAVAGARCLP

[1] = biological target: T2, mutant MGL (mut-MGLL 11-313 L179S L186S) (Homo sapiens, UniProt Q99685, L169S/L176S); test: MGL Enzyme Activity Assay, purified mutant MGL, 4MU-B substrate; assay type: biochemical; details: mutant MGL 5 nM, 4MU-B 10 μM, 37° C.; read-out: MGL mutant inh IC50
T2 construct: purified mutant MGL (mut-MGLL 11-313 L179S L186S)
T2 sequence (Q99685 1-303 L169S/L176S): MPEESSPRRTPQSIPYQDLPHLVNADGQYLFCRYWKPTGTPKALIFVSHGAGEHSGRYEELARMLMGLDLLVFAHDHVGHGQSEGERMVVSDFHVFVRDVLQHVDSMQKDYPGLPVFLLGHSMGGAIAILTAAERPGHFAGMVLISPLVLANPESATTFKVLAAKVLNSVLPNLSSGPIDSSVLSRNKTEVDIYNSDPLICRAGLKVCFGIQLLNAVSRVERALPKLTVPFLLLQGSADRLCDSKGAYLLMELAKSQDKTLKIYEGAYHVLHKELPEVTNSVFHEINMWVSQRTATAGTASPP
Method: All rate-based assays were performed in black 384-well polypropylene PCR microplates (Abgene) in a total volume of 30 μL. Substrate 4-methylumbelliferyl butyrate (4MU-B; Sigma) and either purified mutant MGL (mut-MGLL 11-313 L179S L186S) or purified wild type MGL (wt-MGLL 6H-11-313) were diluted separately into 20 mM PIPES buffer (pH=7.0), containing 150 mM NaCl and 0.001% Tween 20. Compounds of Formula (I), including Formulas I(a), I(b), and I(c), were pre-dispensed (50 nL) into the assay plate using a Cartesian Hummingbird prior to adding 4MU-B (25 μL of 1.2× solution to a final concentration of 10 μM) followed by enzyme (5 μL of a 6× solution to a final concentration of 5 nM) to initiate the reaction. Final compound concentrations ranged from 17 to 0.0003 μM. The fluorescence change due to 4MU-B cleavage was monitored with excitation and emission wavelengths of 335 and 440 nm, respectively, and a bandwidth of 10 nm (Safire^2, Tecan) at 37° C. for 5 min.
The IC50 values for the following compounds were determined using Microsoft Office Excel from a fit of the equation to the concentration-response plot of the fractional activity as a function of inhibitor concentration.

mutant MGL = biological target: T3, mutant MGL (Homo sapiens, UniProt Q99685, L169S/L176S); test: MGL ThermoFluor Assay - Mutant; assay type: binding; details: 0.07 mg/ml mutant MGL, 100 μM ANS, pH 7.0
T3 construct: purified mutant MGL (mut-MGLL 11-313 L179S L186S)
T3 sequence (Q99685 1-303 L169S/L176S): T2 sequence (Q99685 1-303 L169S/L176S)
Method: The ThermoFluor (TF) assay is a 384-well plate-based binding assay that measures thermal stability of proteins^1,2. The experiments were carried out using instruments available from Johnson & Johnson Pharmaceutical Research & Development, LLC. TF dye used in all experiments was 1,8-ANS (Invitrogen: A-47). Final TF assay conditions used for MGL studies were 0.07 mg/ml of mutant MGL, 100 μM ANS, 200 mM NaCl, 0.001% Tween-20 in 50 mM PIPES (pH=7.0).
Screening compound plates contained 100% DMSO compound solutions at a single concentration. […] Columns 12 and 24 were used as DMSO reference and contained no compound. […] Following compound dispension, protein and dye solutions were added to achieve the final assay volume of 3 μL.
Bar-coded assay plates were robotically loaded onto a thermostatically controlled PCR-type thermal block and then heated from 40 to 90° C. degrees at a ramp-rate of 1° C./min for all experiments. Fluorescence was measured by continuous illumination with UV light (Hamamatsu LC6), supplied via fiber optics and filtered through a band-pass filter (380-400 nm; >60D cutoff). Fluorescence emission of the entire 384-well plate was detected by measuring light intensity using a CCD camera (Sensys, Roper Scientific) filtered to detect 500±25 nm, resulting in simultaneous and independent readings of all 384 wells. A single image with 20-sec exposure time was collected at each temperature, and the sum of the pixel intensity in a given area of the assay plate was recorded vs temperature and fit to standard equations to yield the Tm^1. • 1.
The Kd values for certain compounds of Formula (I) were determined from a fit of the equation to the concentration-response plot of the fractional activity as a function of […]. For some experiments, quantitative NMR spectroscopy (qNMR) was used to measure concentration of the initial 100% DMSO compound solutions and, using the same fitting method, qKd values were determined.

Row | SMILES | activity at 10 µM (MGL) [%] | IC50 [1] [nM] | Kd (mutant MGL) [nM]
1 | Cc1c(C(=O)N2CC(N3CC(NC(=O)c4nccs4)C3)C2)sc2ccc(Cl)cc12 [Cpd 15, N-{1′-[(5-Chloro-3-methyl-1-benzothiophen-2-yl)carbonyl]-1,3′-biazetidin-3-yl}-1,3-thiazole-2-carboxamide] | 611 | 28 | 
2 | O=C(NC1CN(C2CN(C(=O)c3ccc4c(Br)cccc4c3)C2)C1)c1nccs1 [Cpd 19, N-{1′-[(5-Bromonaphthalen-2-yl)carbonyl]-1,3′-biazetidin-3-yl}-1,3-thiazole-2-carboxamide] | 418 | 63 | 
3 | O=C(NC1CN(C2CN(C(=O)c3ccc(Cc4cccc(C(F)(F)F)c4)cc3)C2)C1)c1nccs1 [Cpd 20, N-[1′-({4-[3-(Trifluoromethyl)benzyl]phenyl}carbonyl)-1,3′-biazetidin-3-yl]-1,3-thiazole-2-carboxamide] | 977 | 65 | 
4 | O=C(NC1CN(C2CN(C(=O)c3ccc4cc(-c5ccccc5)ccc4c3)C2)C1)c1nccs1 [Cpd 21, N-{1′-[(6-Phenylnaphthalen-2-yl)carbonyl]-1,3′-biazetidin-3-yl}-1,3-thiazole-2-carboxamide] | 581 | 69 | 
5 | O=C(NC1CN(C2CN(C(=O)c3cc4ccc(Br)cc4s3)C2)C1)c1nccs1 [Cpd 23, N-{1′-[(6-Bromo-1-benzothiophen-2-yl)carbonyl]-1,3′-biazetidin-3-yl}-1,3-thiazole-2-carboxamide] | 343 | 93 | 
6 | O=C(NC1CN(C2CN(C(=O)c3ccc4c(Br)cccc4c3)C2)C1)c1ccccc1 [Cpd 24, N-{1′-[(5-Bromonaphthalen-2-yl)carbonyl]-1,3′-biazetidin-3-yl}benzamide] | 73 | 99 | 
7 | O=C(NC1CN(C2CN(C(=O)c3ccc4ccn(-c5ccccc5)c4c3)C2)C1)c1nccs1 [Cpd 27, N-{1′-[(1-Phenyl-1H-indol-6-yl)carbonyl]-1,3′-biazetidin-3-yl}-1,3-thiazole-2-carboxamide] |  | 167 | 446
8 | O=C(NC1CN(C2CN(C(=O)c3ccc(Cc4ccccc4)cc3)C2)C1)c1ccccc1 [Cpd 31, N-{1′-[(4-Benzylphenyl)carbonyl]-1,3′-biazetidin-3-yl}benzamide] |  | 270 | 154
9 | O=C(NC1CN(C2CN(C(=O)c3ccc(-c4ccccc4)cc3)C2)C1)c1ccccc1 [Cpd 39, N-[1′-(Biphenyl-4-ylcarbonyl)-1,3′-biazetidin-3-yl]benzamide] |  | 604 | 222
10 | O=C(NC1CN(C2CN(C(=O)c3ccc4nc(-c5ccccc5)oc4c3)C2)C1)c1ccccc1 [Cpd 41, N-{1′-[(2-Phenyl-1,3-benzoxazol-6-yl)carbonyl]-1,3′-biazetidin-3-yl}benzamide] |  | 939 | 
11 | O=C(NC1CN(C2CN(C(=O)c3ccc4cc(Br)ccc4c3)C2)C1)c1ccccc1 [Cpd 42, N-{1′-[(6-Bromonaphthalen-2-yl)carbonyl]-1,3′-biazetidin-3-yl}benzamide] |  | 997 | 
12 | O=C(NC1CN(C2CN(C(=O)c3ccc(Br)cc3)C2)C1)c1nccs1 [Cpd 43, N-{1′-[(4-Bromophenyl)carbonyl]-1,3′-biazetidin-3-yl}-1,3-thiazole-2-carboxamide] |  | 1680 | 3330
13 | O=C(NC1CN(C2CN(C(=O)c3cc4cc(C(F)(F)F)ccc4s3)C2)C1)c1ccccc1 [Cpd 44, N-(1′-{[5-(Trifluoromethyl)-1-benzothiophen-2-yl]carbonyl}-1,3′-biazetidin-3-yl)benzamide] |  | 1830 | 
14 | O=C(NC1CN(C2CN(C(=O)c3ccc(Oc4ccccc4)cc3)C2)C1)c1ccccc1 [Cpd 45, N-{1′-[(4-Phenoxyphenyl)carbonyl]-1,3′-biazetidin-3-yl}benzamide] |  | 2780 | 833
15 | O=C(NC1CN(C2CN(C(=O)c3ccc4nc(Br)sc4c3)C2)C1)c1cscn1 [Cpd 46, N-{1′-[(2-Bromo-1,3-benzothiazol-6-yl)carbonyl]-1,3′-biazetidin-3-yl}-1,3-thiazole-4-carboxamide] |  | 3750 | 3400
16 | O=C(NC1CN(C2CN(C(=O)c3ccc4c(-c5ccccc5)cccc4c3)C2)C1)c1nccs1 [Cpd 53, N-{1′-[(5-Phenylnaphthalen-2-yl)carbonyl]-1,3′-biazetidin-3-yl}-1,3-thiazole-2-carboxamide] | 722 | < 5 | 
17 | O=C(c1ccc2c(Br)cccc2c1)N1CC(N2CC(N3Cc4ccccc4C3=O)C2)C1 [Cpd 83, 2-{1′-[(5-Bromonaphthalen-2-yl)carbonyl]-1,3′-biazetidin-3-yl}-2,3-dihydro-1H-isoindol-1-one] | 416 | 23 | 
18 | O=C(c1ccc(Cc2cccc(C(F)(F)F)c2)cc1)N1CC(N2CC(N3Cc4ccccc4C3=O)C2)C1 [Cpd 86, 2-[1′-({4-[3-(Trifluoromethyl)benzyl]phenyl}carbonyl)-1,3′-biazetidin-3-yl]-2,3-dihydro-1H-isoindol-1-one] | 447 | 50 | 
19 | O=C(c1ccc2nc(-c3ccc(Cl)cc3)oc2c1)N1CC(N2CC(N3Cc4ccccc4C3=O)C2)C1 [Cpd 88, 2-(1′-{[2-(4-Chlorophenyl)-1,3-benzoxazol-6-yl]carbonyl}-1,3′-biazetidin-3-yl)-2,3-dihydro-1H-isoindol-1-one] | 294 | 96 | 
20 | O=C(c1ccc2c(ccn2-c2ccccc2C(F)(F)F)c1)N1CC(N2CC(N3Cc4ccccc4C3=O)C2)C1 [Cpd 89, 2-[1′-({1-[2-(Trifluoromethyl)phenyl]-1H-indol-5-yl}carbonyl)-1,3′-biazetidin-3-yl]-2,3-dihydro-1H-isoindol-1-one] | 663 | 98 | 
21 | O=C(c1ccc2cc(Br)ccc2c1)N1CC(N2CC(N3Cc4ccccc4C3=O)C2)C1 [Cpd 90, 2-{1′-[(6-Bromonaphthalen-2-yl)carbonyl]-1,3′-biazetidin-3-yl}-2,3-dihydro-1H-isoindol-1-one] |  | 154 | 
22 | O=C(c1ccc(N2CCCCC2)cc1)N1CC(N2CC(N3Cc4ccccc4C3=O)C2)C1 [Cpd 91, 2-{1′-[(4-Piperidin-1-ylphenyl)carbonyl]-1,3′-biazetidin-3-yl}-2,3-dihydro-1H-isoindol-1-one] |  | 236 | 
23 | O=C(c1ccc(-c2cc3ccccc3s2)cc1)N1CC(N2CC(N3Cc4ccccc4C3=O)C2)C1 [Cpd 95, 2-(1′-{[4-(1-Benzothiophen-2-yl)phenyl]carbonyl}-1,3′-biazetidin-3-yl)-2,3-dihydro-1H-isoindol-1-one] |  | 750 | 
24 | O=C(c1ccc(Br)cc1)N1CC(N2CC(N3Cc4ccccc4C3=O)C2)C1 [Cpd 96, 2-{1′-[(4-Bromophenyl)carbonyl]-1,3′-biazetidin-3-yl}-2,3-dihydro-1H-isoindol-1-one] |  | 4670 | 
